Experimental findings from ChEMBL document CHEMBL1201862, “PubChem BioAssay data set” (2004) are described below.

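Grown in 96-well plates, cells were treated for 48 hours with each compound at five concentrations. Insufficient inhibition: endpoint recorded as highest concentration tested. GI50 = concentration required for 50% inhibition of growth.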 Active and inactive are the calls of the source. Rule as the data show it: active = GI50 up to about 1.1 µM and inactive = higher.

Holding throughout (experiment): NCI-60 cell line screen, 48 h
Assay [1] relates to DMS-114.
The test system of assay [2] is DLD-1.
Assay [3] deals with HOP-18.
Assay [4] has as its system DMS-273.
The subject of assay [5] is KM-20L2.
In assay [6] the test system is LXFL 529.
Assay [7] has as its system XF498.
Assay [8] has as its system SNB-78.

For the compound `Cc1ccccc1NC(=O)c1cc2cc(/N=N/c3ccccc3C(=O)O)ccc2oc1=O`, the GI50 in assay [1] is 14.6 µM (inactive); in assay [2] it was 16.7 µM (inactive); in assay [3] it was 15 µM (inactive); in assay [4], 21 µM (inactive); in assay [5], 16.9 µM (inactive).

Consider `COc1ccccc1-n1c(N)c2c(C)c(-c3ccccc3)[nH]c2nc1=S`, for which the GI50 in assay [1] was > 100 µM (inactive); in assay [2], > 100 µM (inactive); in assay [6], > 100 µM (inactive); in assay [3], 4.04 µM (inactive); in assay [4], > 100 µM (inactive); in assay [5] it was 18.7 µM (inactive). Further, the GI50 in assay [7] is > 100 µM (inactive).

As for `CCc1cccc(C)c1NC(=O)CC1C(=O)Nc2ccccc2[S+]1[O-]` (centres undefined), the GI50 in assay [8] is 45.2 µM (inactive); in assay [2] it was 47.6 µM (inactive); in assay [6], 66.1 µM (inactive); in assay [4] it was 42.2 µM (inactive); in assay [5], 30.5 µM (inactive); in assay [7], 46.5 µM (inactive).

For the compound `N#Cc1c2c(c(N=[N+]=[N-])n3c1nc1ccccc13)CCCC2`, the GI50 in assay [8] is 3.56 µM (inactive); in assay [1], 1.19 µM (inactive); in assay [2], 1.39 µM (inactive); in assay [4], 2.37 µM (inactive); in assay [5] it was 2.24 µM (inactive); in assay [7], 1.75 µM (inactive).

For the compound `Cc1nc2c(n1Cc1ccc(Cl)cc1)C(=O)c1ccccc1C2=O`, the GI50 in assay [8] was 9.42 µM (inactive); in assay [2] it was 4.18 µM (inactive); in assay [6], 5.47 µM (inactive); in assay [4], 2.62 µM (inactive); in assay [5], 8.05 µM (inactive); in assay [7], 36.4 µM (inactive).

On to `C=C1C(C)C2C(Cc3ccccc3)NC(=O)C23C(OC(C)=O)/C=C/C(C)(O)CC(C)C/C=C/C3C1O` (centres undefined), for which the GI50 in assay [8] was 0.0454 µM (active); in assay [1] it was 8.57 µM (inactive); in assay [2], 0.0796 µM (active); in assay [3], 0.0324 µM (active); in assay [4] it was 6.1 µM (inactive); in assay [5] it was 0.112 µM (active). Also, the GI50 in assay [7] was 0.973 µM (active).

In the case of `COc1cc(C2c3cc4c(cc3[C@@H](OCCN)[C@H]3COC(=O)C23)OCO4)cc(OC)c1O` (some centres undefined), the GI50 was 3.52 µM (inactive) in assay [8]; 0.0295 µM (active) in assay [1]; 1.32 µM (inactive) in assay [2]; 0.776 µM (active) in assay [6]; 1.77 µM (inactive) in assay [3]; 0.543 µM (active) in assay [5]. Further, in assay [7], the GI50 is < 0.0347 µM (active).

As for `COc1cc2c(cc1O)CN1CCC23C=C[C@@H](O)CC13` (some centres undefined), the GI50 was > 100 µM (inactive) in assay [8]; 54.5 µM (inactive) in assay [1]; 63 µM (inactive) in assay [2]; 51.3 µM (inactive) in assay [6]; 71 µM (inactive) in assay [3]; 57.4 µM (inactive) in assay [4]. In assay [5], the GI50 is > 100 µM (inactive).

For the compound `O=C1C(c2ccc([N+](=O)[O-])cc2)=[N+]([O-])c2ccccc21`, the GI50 was 22.5 µM (inactive) in assay [8]; 10.7 µM (inactive) in assay [1]; 33.9 µM (inactive) in assay [2]; 19.8 µM (inactive) in assay [6]; < 0.01 µM (active) in assay [3]; > 10 µM (inactive) in assay [4].

As to `CC1=C2C(=CC(C)(C)[C@@H]2O)C(=O)[C@](C)(O)C12CC2` [ILLUDIN M], the GI50 in assay [1] is 0.0251 µM (active); in assay [2], 0.0138 µM (active); in assay [6], 0.022 µM (active); in assay [3], 0.0313 µM (active); in assay [4], 0.01 µM (active); in assay [5], 0.0156 µM (active). In addition, the GI50 in assay [7] is 0.01 µM (active).

As for `COC(=O)[C@H]1[C@H]2C[C@@H]3c4[nH]c5cc(OC)ccc5c4CCN3C[C@H]2C[C@@H](OC(=O)c2cc(OC)c(OC)c(OC)c2)[C@@H]1OC` [RESERPINE], the GI50 in assay [1] is 15.6 µM (inactive); in assay [2] it was 30.5 µM (inactive); in assay [6] it was 14.4 µM (inactive); in assay [4] it was 20 µM (inactive); in assay [5], 16.7 µM (inactive).
